Measured values from the supplement of paper PMC5844555.

Legend:
Experiment in all cases: 3' UTR reporter interaction score (median-centred robust z-score of log2 firefly/Renilla activity); higher = less repression of the 3' UTR reporter
Conditions in all cases: HEK293T; 48 h
BRCA2 = test system: BRCA2
Procedure, shortened: (§1)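 The interaction score is based on the log-transformed firefly/Renilla luciferase ratio, scaled as a robust z-score within each plate by median and median absolute deviation and median-centred for each miRNA; more negative scores indicate interaction. It was averaged over at least two independent screens. Readings were taken 48 h after HEK293T cells (10,000/well, 96-well plates) were co-transfected by DharmaFECT Duo with 100 ng firefly luc2P 3' UTR reporter, 20 ng Renilla pRL-TK and 2.5 pmol miRNA mimic.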

FBXW7 = test system: FBXW7
Procedure, shortened: as §1

HRAS = test system: HRAS
Procedure, shortened: as §1

MYB = test system: MYB
Procedure, shortened: as §1

MYCN = test system: MYCN
Procedure, shortened: as §1

MYC = test system: MYC
Procedure, shortened: as §1

MYT1L = test system: MYT1L
Procedure, shortened: as §1

NOTCH1 = test system: NOTCH1
Procedure, shortened: as §1

PHF6 = test system: PHF6
Procedure, shortened: as §1

PHOX2B = test system: PHOX2B
Procedure, shortened: as §1

RB1 = test system: RB1
Procedure, shortened: as §1

TP53 = test system: TP53
Procedure, shortened: as §1

ZEB2 = test system: ZEB2
Procedure, shortened: as §1

EZH2 = test system: EZH2
Procedure, shortened: as §1

Sequence	3' UTR reporter interaction score (BRCA2)	3' UTR reporter interaction score (FBXW7)	3' UTR reporter interaction score (HRAS)	3' UTR reporter interaction score (MYB)	3' UTR reporter interaction score (MYCN)	3' UTR reporter interaction score (MYC)	3' UTR reporter interaction score (MYT1L)	3' UTR reporter interaction score (NOTCH1)	3' UTR reporter interaction score (PHF6)	3' UTR reporter interaction score (PHOX2B)	3' UTR reporter interaction score (RB1)	3' UTR reporter interaction score (TP53)	3' UTR reporter interaction score (ZEB2)	3' UTR reporter interaction score (EZH2)
AAAACGGUGAGAUUUUGUUUU	-0.776	0.403	-0.201	0.737	0.148	0.0587	-0.225	-1.23	-0.604	1.39	-1.03	-0.39	0.0197	–
AAAAGCUGGGUUGAGAGGGCGAA	0.138	0.0632	-0.583	1.19	0.121	0.0971	-0.165	0.666	0.0922	-1.64	0.499	-0.479	1.15	-2.65
AAAAGUGCUUACAGUGCAGGUAGC	0.703	-0.263	0.892	-0.0116	-0.211	0.278	-1.75	0.451	1.56	-0.496	0.176	-0.24	0.747	-0.783
AAAAUGGUUCCCUUUAGAGUGUU	-1.38	0.697	0.747	-0.486	0.195	0.494	0.818	-2.3	0.573	-0.183	-2.85	-1.35	-1.19	0.888
AAACAAACAUGGUGCACUUCUUU	-0.147	-0.367	-0.444	0.209	0.437	0.601	-1.89	0.581	-1.41	0.00827	1.09	-0.293	-0.365	1.82
AAACCGUUACCAUUACUGAGUUU	0.378	-0.543	-0.683	–	-0.445	-0.972	1.68	-0.371	0.358	-1.13	-0.236	0.812	0.377	0.71
AAACCUGUGUUGUUCAAGAGUC	1.31	0.0167	0.374	-0.47	-0.75	-0.2	-0.496	0.0529	-0.148	-2.54	-0.803	0.0666	-1.07	0.928
AAACUACUGAAAAUCAAAGAU	0.536	-0.0213	-0.566	0.63	-0.411	0.0375	-0.7	-0.667	0.0968	-0.331	0.321	0.261	-1.71	-0.0901
AAAGUGCUGUUCGUGCAGGUAG	-0.619	0.872	-0.586	-1.38	-0.359	-0.0736	-1.47	0.83	0.684	1.63	0.0538	0.803	-0.0741	–
AACUGGCCCUCAAAGUCCCGCUUU	0.335	0.0369	1.58	-3.7	-2.37	0.891	-0.278	-1.04	-1.81	0.301	1.12	–	0.222	0.347
AACUGGCCUACAAAGUCCCAG	-0.135	0.16	1.01	-3.25	-2.47	0.942	-0.789	-1.05	–	-0.335	0.314	-0.0425	0.719	0.239
AAUCGUACAGGGUCAUCCACUU	-0.12	0.407	0.0979	0.179	-0.121	0.0345	-0.171	0.0951	–	1.36	-0.619	0.0793	0.283	0.723
AAUUGCACGGUAUCCAUCUGUA	0.52	-6.72	0.777	0.44	0.653	1.4	–	-0.751	0.891	-1.97	1.19	-1.12	-3.51	-0.862
ACUUUAACAUGGAAGUGCUUUCU	0.253	–	-0.0142	-0.31	-0.0564	0.48	0.13	-0.363	-0.0712	-0.178	–	0.121	-0.795	0.735
AGAUCAGAAGGUGAUUGUGGCU	0.117	1.15	0.462	-2.02	-0.0131	-0.231	–	0.74	1.45	-0.105	-1	0.622	-0.441	0.782
AGGCACCAGCCAGGCAUUGCUCAGC	–	-2.35	-0.411	0.348	-0.343	-0.313	0.327	-0.1	0.574	-2.66	0.342	0.444	-0.849	1
AUCACAUUGCCAGGGAUUACC	-1.56	-0.221	-0.747	-0.174	0.139	0.209	0.363	-0.965	0.0907	0.2	0.534	–	1.1	0.0796
AUGUAUAAAUGUAUACACAC	0.174	0.329	0.0947	-0.578	-0.0355	-0.0623	–	-1.28	-0.348	0.0154	-0.33	1.38	-1.04	0.905
CAAAAACCACAGUUUCUUUUGC	–	-0.0284	-1.1	-1.54	0.186	0.0969	-0.79	-0.821	0.268	0.417	0.189	-0.323	-0.847	0.177
CAAAGUGCUUACAGUGCAGGUAGU	-0.125	–	0.135	-0.142	-0.306	0.444	-0.396	0.897	-0.0772	0.665	0.713	0.459	1.15	-0.848
